Results: patent publication US20250115595A1, “INHIBITORS OF HYPOXIA-INDUCIBLE FACTORS” (The Johns Hopkins University, priority 2021, published 2025)

Experiments:
Hepa1-6 mouse HCC cells = assay: RT-qPCR of hypoxia-induced mRNAs in Hepa1-6 cells; format: cell-based
Description: Effects of 32-134D on Hepa1-6 mouse HCC cells and tumors. […] Thus, 32-134D inhibits the ability of hypoxic HCC cells to increase O2 delivery by stimulating angiogenesis (Angpt14, Pgf, Vegfa) or […] anaerobic metabolism by increasing glycolytic flux (Glut1, Pgk1, Ldha).
Human Hep3B and mouse Hepa1-6 cells were purchased from ATCC and grown in high-glucose (4.5 mg/ml) Dulbecco's modified Eagle's medium supplemented with 10% (vol/vol) fetal bovine serum and […] at 37° C. in a 5% CO2/95% air incubator (20% O2). Human cell line identity was authenticated by analysis of short tandem repeats, and all cell lines were maintained mycoplasma free, using PCR-based assays conducted at the Johns Hopkins University Genetic Resources Core Facility. Cells were subjected to hypoxia in a controlled atmosphere chamber (PLAS Labs) with ambient gas mixture containing 1% O2 and 5% CO2.
RNA was extracted using TRIzol Reagent (ThermoFisher). Quantitative Real-time PCR was conducted using SYBR Green PCR Master Mix (BioRad) and reactions were run using the BioRad thermal cycler (BioRad). The mRNA expression of target genes was normalized to the expression of 18S rRNA and the fold change (FC) was calculated based on the threshold cycle (Ct) as […]

STZ mice = assay: STZ diabetic mouse model, intraperitoneal dosing; format: in vivo; details: 5 daily IP injections 40 mg/kg
Description: The ability of 32-143D to inhibit vascular permeability in diabetic patients was evaluated using the streptozotocin (STZ) model for diabetic macular edema. 8-to-10-week-old C57BL/6 mice were administered STZ by IP injection. Hyperglycemia (serum glucose >250 mg/dL) was confirmed by glucometer 2 weeks later. After 6 months of sustained hyperglycemia, mice were treated with 5 daily IP injections with 32-134D at 40 mg/kg or with vehicle control. 24 hours after the fifth IP injection, mice were euthanized, Evans blue perfusion was performed, and retina flat mounts were examined for vascular leakage.
Vascular permeability by Evans blue tracer method: Mice were anesthetized with a mixture of ketamine (50 mg/kg) and xylazine (5 mg/kg) and subjected to Evans blue (Sigma) (50 mg/kg) perfusion by penile vein injection. […] Images were captured by Zeiss fluorescent microscope or confocal microscopy and fluorescence quantified by image J software (NIH). […] Blinded quantification of the number of leaking vessels was performed by manual counting major leakage from capillaries from retinas of each group. Non-capillary artifactual Evans blue or FITC-dextran leakage due to flat mount processing as well as minor leakages were not included in the quantitation. […] Random fields were chosen from retinas where leakages were absent to determine baseline fluorescence that arise from capillaries. […]

OIR mice = assay: OIR mouse model, intraocular dosing; format: in vivo
Description: The efficacy of 32-134D following intraocular administration with 70 ng, as well as a lower dose (14 ng), in OIR mice at P12 (J. Zhang et al., J Clin Invest 131 (2021)) was determined.
The efficacy of 32-134D following IVT administration was also evaluated in the OIR model. At P14, pups were treated with a single intravitreal injection with 32-134D (14 or 70 ng) in 1 ul or with vehicle (DMSO) control. At P17, retinal flat mounts were stained with isolectin-B4 to examine the development of retinal neovascularization.
Intraocular injections: Intravitreal injections were performed with a PLI-100A Pico-liter Microinjector (Warner Instruments, Harvard Bioscience) using pulled-glass micropipettes. Each micropipette was calibrated to deliver a 1 μl volume on depression of a foot switch. The mice were anesthetized with a ketamine (100 mg/kg) and xylazine (5 mg/kg) mixture, and under a dissecting microscope, the sharpened tip of the micropipette was passed through the sclera just posterior to the limbus into the vitreous cavity and the foot switch was depressed, which caused fluid to penetrate into the vitreous space. Test compound was injected into the vitreous cavity in OIR and STZ mice for vascular permeability test, retinal vasculature and lysates for WB and qPCR analysis.
OIR mouse model: OIR experiments were performed as previously described (M. Rodrigues et al., 2013, Diabetes 62, 3863-3873). Briefly, C57BL/6 mice were placed in 75% O2 on P7. On P12, the mice were returned to room air and administered either by IP injection (digoxin and test compound) or by intravitreal injection. Mice with body weight less than 6 g at P17 were excluded from analysis. The data were collected from both males and females and the results combined, as there was no apparent difference between sexes. Representative images for selected time points from a minimum of three independent experiments are shown. Data from 3-8 pups were obtained at each time point.

HIF-1α and HIF-2α = assay: Immunoblot of HIF-1α and HIF-2α accumulation in hypoxic MIO-M1 cells; format: cell-based, human; details: as little as 1 μM, 4 hours
Description: It has previously been reported that the cells in the inner nuclear layer of the retina that express VEGF in response to hypoxia/ischemia are Müller glial cells (X. Xin et al., Proc Natl Acad Sci USA 110, E3425-3434 (2013)). […] The effects of 32-134D on HIF-1α accumulation persisted up to 16 hours after treatment of cultured cells (FIG. 27B).
Cells culture and reagents: MIO-M1 cells were a gift from Dr. Astrid Limb (University College London, Institute of Ophthalmology, London, United Kingdom). MIO-M1 and HUVEC cells were cultured in DMEM with 10% (vol/vol) FBS (Quality Biological) and 1% penicillin/streptomycin (Cellgro). Hypoxia chambers were used to expose cells. Evans Blue (E2129) was purchased from Sigma-Aldrich.
Immunoblot assays and ELISAs: Cell, neurosensory retina, and D120 retinal organoid lysates were subjected to 4-15% gradient SDS/PAGE (Invitrogen). Immunoblot assays were performed as previously described (X. Xin et al., 2013, Proc Natl Acad Sci USA 110, E3425-3434).

Brc1ccc2c(-c3csc(-c4c[nH]c5c(Br)cccc45)n3)c[nH]c2c1 [Compound 32-134D, 4-(6-bromo-1H-indol-3-yl)-2-(7-bromo-1H-indol-3-yl)thiazole]
hypoxia induction of B7h4 and Tim3 mRNAs (Hepa1-6 mouse HCC cells; Hepa1-6 cells, 5 μM): hypoxia-induced in vehicle but not in 32-134D-treated cells | hypoxia induction of Pdl1 mRNA (Hepa1-6 mouse HCC cells; Hepa1-6 cells, 5 μM): hypoxia-induced in vehicle-treated but not in 32-134D-treated cells | hypoxia-induced expression of Glut1 and Ldha (Hepa1-6 mouse HCC cells; Hepa1-6 cells, 5 μM): blocked | decreased Cxcl1, Il6 and Il10 mRNA levels (Hepa1-6 mouse HCC cells; cultured Hepa1-6 cells): not in cultured Hepa1-6 cells exposed to 32-134D | hypoxia-induced IL22 mRNA expression (Hepa1-6 mouse HCC cells; cultured Hepa1-6 cells): inhibited | hypoxia-induced expression of mRNA encoding Angpt14, Pgf, Vegfa and Pgk1 (Hepa1-6 mouse HCC cells; hypoxic Hepa1-6 cells): significant dose-dependent inhibition | vascular leakage (Evans blue fluorescence intensity) (STZ mice): significantly decreased vascular leakage | HIF-1α and HIF-2α protein accumulation in retina (OIR mice; single 14-ng intraocular injection, P13 and P14): marked reduction | expression of mRNAs encoding VEGF, KDR and other HIF-regulated angiogenic mediators (OIR mice; single intraocular injection at P12, P17): decreased expression | retinal neovascularization (OIR mice; single intravitreal injection 14 or 70 ng at P14, P17): significant decrease | HIF-1α and HIF-2α protein accumulation in response to hypoxia (HIF-1α and HIF-2α): decreased
